System: CD20+ Daudi human lymphoma cells
Assay: Toxicity of cisplatin-loaded peptide: Daudi cell proliferation/survival after overnight treatment
Format: cell-based
Conditions: treated overnight, 100 μg/ml
Protocol: FIG. 4 is a graph plotting the toxicity of cisplatin-loaded peptide. CD20+ Daudi human lymphoma cells were treated overnight with 100 μg/ml ABRAXANE® (ABX), 100 μg/ml cisplatin (CIS), 1 mg/ml rituximab (RIT), 1 mg/ml peptide only (PEP), 100 μg/ml peptide-loaded cisplatin (PEP+CIS), peptide with rituximab (PEP+RIT), or 100 μg/ml peptide-loaded cisplatin with rituximab (PEP+CIS+RIT).
CD20+ Daudi human lymphoma cells were treated overnight with 100 μg/ml ABRAXANE® (ABX), 100 μg/ml cisplatin (CIS), 1 mg/ml rituximab (RIT), 1 mg/ml peptide (SEQ ID NO:2) only (PEP), 100 μg/ml peptide-loaded cisplatin (PEP+CIS), peptide with rituximab (PEP+RIT), or 100 μg/ml peptide-loaded cisplatin with rituximab (PEP+CIS+RIT), and cell survival was assessed (FIG. 4).

Compound	Daudi proliferation, % of the total (control) proliferation	Toxicity to Daudi cells compared with cisplatin-containing peptide (in words)
PEP+CIS (VVLCQLCVLHEKTPVSDR)	80%	
N.N.[Cl][Pt][Cl] [cisplatin]		equivalent
